According to paper PMC4118827, “Mapping the conformational space accessible to catechol-O-methyltransferase” (Acta Crystallographica Section D: Biological Crystallography, 2014):
Numbering of substitutions follows the chain as printed.

What was measured:
[1] = target: T1, humanized rat COMT (hrCOMT), catechol-O-methyltransferase (Rattus norvegicus, UniProt P22734, M134I/Y138C); assay: co-crystal structure ([…]) at […] Å; IC50 from activity-based high-throughput screen; assay type: biochemical
T1 sequence (P22734 44-264 M134I/Y138C): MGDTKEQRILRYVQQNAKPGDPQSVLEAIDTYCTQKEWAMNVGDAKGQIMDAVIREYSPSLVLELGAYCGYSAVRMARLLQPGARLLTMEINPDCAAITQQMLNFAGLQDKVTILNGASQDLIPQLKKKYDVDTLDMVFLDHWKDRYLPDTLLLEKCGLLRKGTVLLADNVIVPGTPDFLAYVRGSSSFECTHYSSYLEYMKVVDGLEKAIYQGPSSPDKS

[2] = target: T2, rat COMT (rCOMT), catechol-O-methyltransferase (Rattus norvegicus, UniProt P22734); assay: co-crystal structures ([…]), semi-holo, and ([…]), with tolcapone and Mg2+; assay type: binding
T2 construct: soluble N-terminally truncated form, lacks the N-terminal 43 residues
T2 sequence (P22734 44-264): T1 sequence (P22734 44-264 M134I/Y138C) with I91M, C95Y

Compound	IC50 [1]	co-crystal structures (7), semi-holo, and (8), with tolcapone and Mg2+ [2]
N=C(N)c1ccc(NC(=O)Nc2cccc(CN)c2)cc1 [4-[3-(3-aminomethylphenyl)-ureido]-benzamidine]	4.4 µM	–
Nc1ncnc2c1ncn2[C@@H]1O[C@H](C[C@@H](N)CC[C@H](N)C(=O)O)[C@@H](O)[C@H]1O [sinefungin]	–	Co-crystal structure with the SAM analogue sinefungin. Semi-holo form.
